Test [1] has as its target T1, MERTK (Homo sapiens, UniProt Q12866, K591R/K693R/K702R/K856R).
T1 construct: kinase domain (residues 571–864), KR mutant
T1 sequence (Q12866 571-864 K591R/K693R/K702R/K856R): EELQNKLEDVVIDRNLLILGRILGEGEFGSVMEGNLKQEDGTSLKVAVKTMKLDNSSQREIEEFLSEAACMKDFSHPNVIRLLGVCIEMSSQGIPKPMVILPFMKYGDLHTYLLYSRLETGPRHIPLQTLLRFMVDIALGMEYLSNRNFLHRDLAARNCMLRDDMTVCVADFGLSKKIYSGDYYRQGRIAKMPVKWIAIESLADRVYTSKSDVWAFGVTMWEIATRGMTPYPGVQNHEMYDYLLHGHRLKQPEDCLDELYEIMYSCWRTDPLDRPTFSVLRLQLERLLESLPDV
The test can be described thus: X-ray cocrystal structure at […] Å. The format is binding.

Test [2] has as its target T2, MERTK (Homo sapiens, UniProt Q12866).
T2 construct: kinase domain (residues 571–864, wild type; WT)
T2 sequence (Q12866 571-864): T1 sequence (Q12866 571-864 K591R/K693R/K702R/K856R) with R21K, R123K, R132K, R286K
The test can be described thus: HTRF KinEASE-TK kinase kinetic assay. The class given is biochemical.

Molecules are shown by their SMILES. Positions count from the first letter of the chain named.

Turning to `Nc1nccc(Oc2ccc(NC(=O)c3c[nH]cc(-c4ccc(F)cc4)c3=O)cc2F)c1Cl` [BMS794833, N-[4-(2-amino-3-chloropyridin-4-yl)oxy-3-fluorophenyl]-5-(4-fluorophenyl)-4-oxo-1H-pyridine-3-carboxamide], the “X-ray cocrystal structure at 2.16 Å” value on MERTK [1] is “clear electron density map for BMS794833 showed that it occupied both the ATP-binding pocket and the allosteric back pocket”. The inhibition constant (Ki) (commonly the dissociation constant of the complex between target and ligand, obtained from inhibition or displacement) on MERTK [2] was found to be 22.4 nM.

The values above are taken from publication PMC9534909, “BMS794833 inhibits macrophage efferocytosis by directly binding to MERTK and inhibiting its activity” (Experimental & Molecular Medicine, 2022).
